Results: patent US11339193B2, “CDP protein secretion inhibitors” (KEZAR LIFE SCIENCES, priority 2018, dated 2022)
Numbered stars: 1 amine (or outer) side, 2 acyl side, 3 side chain; on linkers, the order of the positions; unused ones are H or OH. Square brackets hold non-standard residues; d marks the D form. Peptide text beside a SMILES is read from it. NMeTrp(1-(4-Br-benzyl)) = CN[C@@H](Cc1cn(Cc2ccc(Br)cc2)c2ccccc12)C(=O)O; Butanoyl(2R-oxy,4-CN) = N#CCC[C@@H](O)C(=O)O; NMe3Pal(5-F) = CN[C@@H](Cc1cncc(F)c1)C(=O)O; X22 = CCCC[C@@H](C)C[C@H](N[*:1])C(=O)[*:2]; NMePhe(4-F) = CN[C@@H](Cc1ccc(F)cc1)C(=O)O; X28 = CCCC[C@H](C)C[C@H](N[*:1])C(=O)[*:2]; Nva(5,5,5-F3) = N[C@@H](CCC(F)(F)F)C(=O)O; Abu(4,4,4-F3) = N[C@@H](CC(F)(F)F)C(=O)O; NMeL = CN[C@@H](CC(C)C)C(=O)O; NMeA = CN[C@@H](C)C(=O)O; dLac = C[C@@H](O)C(=O)O

Tests used:
Format in all cases: cell-based
[1] = system: NCI-H929 multiple myeloma cell line; assay: H929 assay (cell viability, Celltiter-Glo); conditions: Homo sapiens, NCI-H929; 48 hours, cell viability; read-out: H929 EC50
Method in brief: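 Cells plated in RPMI 1640 with 10% FBS and 2 mM glutamine, treated with compound dilutions in DMSO/media. Incubation 48 h at 37° C, 5% CO2. Viability from luciferase luminescence signal.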

[2] = system: PD1-ss+10aa/Gaussia Luciferase; assay: Dox induced PD1-ss-Gluc assay; conditions: Flp-In 293 T-REx cells, doxycycline, 24 hours; read-out: PD1ss Gluc IC50
Method in brief: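 Stable Flp-In 293 T-REx line expressing doxycycline-inducible Gaussia luciferase fused to the PD1 signal sequence plus 10 amino acids. Cells plated the day before, then exposed to compound dilutions in DMSO/media containing doxycycline at 37 °C, 5% CO2.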

[3] = system: U266B1 multiple myeloma cell line; assay: U266 assay (cell viability, Celltiter-Glo); conditions: Homo sapiens, U-266; 48 hours, cell viability
Experimental: Cells were plated in 384-well tissue culture plates and treated with compound dilutions in DMSO/media. Plates were incubated at 37° C., 5% CO2 for 48 hours. After 48 hours, Celltiter-Glo@ (Promega) was added to each well and luciferase signal was quantified using Tecan Infinite M1000 Pro for cell viability determination.

[4] = system: JJN3 plasma cell leukemia cell line; assay: JJN-3 assay (Alamar blue); conditions: Homo sapiens, 72 h
Experimental: (§1) BT474 is a human breast tumor cell line. JJN3 is a human plasma cell leukemia cell line. […] Cells were seeded at 100 000 cells/mL. Aliquots of 5000 cells (50 μL) were added to each well in black, clear bottom 96-well plates. Compounds or control (50 uL of 1% DMSO in cell culture medium) were added to the cells to the indicated final concentrations and cells were incubated for 72 h (unless otherwise specified). After incubation was complete, Alamar blue (10 uL of a 1 mg/mL solution) was added to each well and plates were incubated for 5 h. Fluorescence was then measured (excitation 545 nm, emission 590 nm) and is reported as […] normalized to DMSO control.

[5] = system: TNFα-FL/Gaussia Luciferase; assay: Dox induced TNFα-FL-Gluc assay; conditions: Flp-In 293 T-REx cells, doxycycline, 24 hours; read-out: TNFa FL Gluc IC50
Method in brief: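 Stable Flp-In 293 T-REx line expressing full-length TNFα (aa 1-233) fused at its C-terminus to Gaussia luciferase under doxycycline-inducible control. Cells plated the day before, then given compound dilutions in DMSO/media containing doxycycline and incubated at 37 °C, 5% CO2.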

[6] = system: Prl-ss+10aa/Gaussia Luciferase; assay: Prl-ss-Gluc assay (constitutively active or 24 hr Dox inducible); conditions: Flp-In 293 T-REx cells, 24 hours; read-out: Prl IC50
Method in brief: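 Stable Flp-In 293 T-REx lines express Prl signal sequence+10aa fused to Gaussia luciferase, either constitutively (pcDNA5/FRT) or under the T-REx promoter (pcDNA5/FRT/TO). Cells plated the day before; compounds in DMSO/media (with doxycycline for the inducible line, 24 h) incubated at 37 °C, 5% CO2.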

[7] = system: VCAMss+10aa/Gaussia Luciferase; assay: VCAM-ss-Gluc assay (constitutively active or Dox induced); conditions: Flp-In 293 T-REx cells, 24 hours
Experimental: Assays Constitutively Active VCAM-ss-Gluc Assay
Transfected cells were selected for resistance to the selectable markers Hygromycin and Blasticidin to create a stable cell line that constitutively expressed the VCAMss+ 10aa/Gaussia Luciferase fusion protein. The day before assay, cells were trypsinized and plated in 384-well tissue culture plates. The next day, culture media was removed from the wells and replaced with fresh media. Compound dilutions in DMSO/media were added to the wells and incubated at 37° C., 5% CO2.
Dox Induced VCAM-ss-Gluc Assay
Transfected cells were selected for resistance to the selectable markers Hygromycin and Blasticidin to create a stable cell line that contained the VCAMss+10aa/Gaussia Luciferase cDNA insert whose expression was regulated under the T-REx™ system. The day before assay, cells were trypsinized and plated in 384-well tissue culture plates. The next day, compound dilutions in DMSO/media containing doxycycline were added to the wells and incubated at 37° C., 5% CO2.

HER3ss-Gluc = assay: HER3ss assay; conditions: HEK-293T T-rex cells, transient transfection, doxycycline, 24 h; read-out: HER3 ss IC50
Method in brief: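 HEK-293T T-REx cells were transiently transfected with HER3 signal sequence (plus four mature-domain residues) fused upstream of mature Gaussia luciferase. Cells were induced with doxycycline (1 μg/ml) and exposed to increasing compound concentrations for 24 h, then secreted luciferase in the conditioned medium was read by luminescence.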

[8] = system: BT474 breast tumor cell line; assay: BT474 assay (Alamar blue); conditions: Homo sapiens, BT-474, 72 h
Experimental: as §1

Row | SMILES | EC50 [1] [µM] | IC50 [2] [µM] | EC50 [3] [µM] | EC50 [4] [µM] | IC50 [5] [µM] | IC50 [6] [µM] | IC50 [7] [µM] | IC50 (HER3ss-Gluc) [µM] | EC50 [8] [µM]
1 | COc1ccc(Cn2cc(C[C@H]3C(=O)N[C@@H](CC(C)C)C(=O)N(C)[C@@H](C)C(=O)O[C@H](C)C(=O)N[C@@H](CC(C)C)C(=O)N(C)[C@@H](CC(C)C)C(=O)N[C@@H](CC(C)C)C(=O)N3C)c3ccccc32)cc1 [C-11] (HELM PEPTIDE1{L.[meA].[C[C@@H](O[*:1])C(=O)[*:2]].L.[meL].L.[COc1ccc(Cn2cc(C[C@@H](C(=O)[*:2])N(C)[*:1])c3ccccc32)cc1]}$PEPTIDE1,PEPTIDE1,1:R1-7:R2$$$V2.0) | 2.56 | 0.052 | 23.7 | 0.792 | 0.295 | 4.5 | 2.09 | – | –
2 | CCCC[C@H](C)C[C@@H]1NC(=O)[C@H](Cc2ccc(F)cc2)N(C)C(=O)[C@H](CC(C)C)NC(=O)[C@H](CC(C)C)N(C)C(=O)[C@H](CC(C)C)NC(=O)[C@@H](C)OC(=O)[C@H](C)N(C)C1=O [C-69] (cyclo(L[NMeL]L[NMePhe(4-F)][X28][NMeA][dLac])) | – | – | – | – | – | – | 1.7 | – | –
3 | CC(C)C[C@@H]1NC(=O)[C@H](Cc2ccccc2)N(C)C(=O)[C@H](CC(C)C)NC(=O)[C@H](CC(C)C)N(C)C(=O)[C@H](CC(C)C)NC(=O)[C@@H](C)OC(=O)[C@H](C)N(C)C1=O [C-34] (HELM PEPTIDE1{L.[meA].[C[C@@H](O[*:1])C(=O)[*:2]].L.[meL].L.[meF]}$PEPTIDE1,PEPTIDE1,1:R1-7:R2$$$V2.0) | 6.54 | 1.05 | – | – | – | – | 0.274 | 0.963 | –
4 | CCCC[C@@H](C)C[C@@H]1NC(=O)[C@H](Cc2ccc(F)cn2)N(C)C(=O)[C@H](CC(C)C)NC(=O)[C@H](CC(C)C)N(C)C(=O)[C@H](C[C@H](C)CCCC)NC(=O)[C@@H](CCC#N)OC(=O)[C@H](C)N(C)C1=O [C-17] | 2.2 | 0.149 | 9.13 | – | 0.274 | 6.34 | 0.014 | – | –
5 | CC(C)C[C@@H]1NC(=O)[C@H](Cc2cn(Cc3ccc(Br)cc3)c3ccccc23)N(C)C(=O)[C@H](CCC(F)(F)F)NC(=O)[C@H](CC(C)C)N(C)C(=O)[C@H](CC(F)(F)F)NC(=O)[C@@H](CCC#N)OC(=O)[C@H](C)N(C)C1=O [C-57] (cyclo(L[NMeA][Butanoyl(2R-oxy,4-CN)][Abu(4,4,4-F3)][NMeL][Nva(5,5,5-F3)][NMeTrp(1-(4-Br-benzyl))])) | 0.834 | 0.026 | – | 0.154 | 0.112 | 1.5 | – | – | 0.832
6 | CCCC[C@@H](C)C[C@@H]1NC(=O)[C@H](Cc2cncc(F)c2)N(C)C(=O)[C@H](CC(C)C)NC(=O)[C@H](CC(C)C)N(C)C(=O)[C@H](C[C@H](C)CCCC)NC(=O)[C@@H](CCC#N)OC(=O)[C@H](C)N(C)C1=O [C-24] (cyclo(L[NMe3Pal(5-F)][X22][NMeA][Butanoyl(2R-oxy,4-CN)][X22][NMeL])) | 1.48 | 0.086 | 5.54 | – | 0.131 | 1.66 | 0.022 | – | –

Further lines, results first:

Row | EC50 [1] [µM] | IC50 [2] [µM] | EC50 [3] [µM] | EC50 [4] [µM] | IC50 [5] [µM] | IC50 [6] [µM] | IC50 [7] [µM] | IC50 (HER3ss-Gluc) [µM] | EC50 [8] [µM] | SMILES
7 | 0.629 | 0.025 | – | 0.111 | 0.09 | 0.619 | – | – | 0.444 | CC(C)C[C@@H]1NC(=O)[C@H](Cc2cn(Cc3ccc(Br)cc3)c3ccccc23)N(C)C(=O)[C@H](CC(F)(F)F)NC(=O)[C@H](CC(C)C)N(C)C(=O)[C@H](CC(F)(F)F)NC(=O)[C@@H](CCC#N)OC(=O)[C@H](C)N(C)C1=O [C-58, 3-((2R,5S,8S,11S,14S,17S,20S)-14-((1-(4-bromobenzyl)-1H-indol-3-yl)methyl)-8,17-diisobutyl-7,13,19,20-tetramethyl-3,6,9,12,15,18,21-heptaoxo-5,11-bis(2,2,2-trifluoroethyl)-1-oxa-4,7,10,13,16,19-hexaazacyclohenicosan-2-yl)propanenitrile] (cyclo(L[NMeA][Butanoyl(2R-oxy,4-CN)][Abu(4,4,4-F3)][NMeL][Abu(4,4,4-F3)][NMeTrp(1-(4-Br-benzyl))]))
8 | – | – | – | 0.669 | – | – | – | 0.245 | 5.84 | CC(C)C[C@@H]1NC(=O)[C@H](Cc2cn(Cc3cccc(OC(F)F)c3)c3ccccc23)N(C)C(=O)[C@H](CC(C)C)NC(=O)[C@H](CC(C)C)N(C)C(=O)[C@H](CC(C)C)NC(=O)[C@@H](CCC#N)OC(=O)[C@H](C)N(C)C1=O [C-76] (HELM PEPTIDE1{L.[meA].[N#CCC[C@@H](O[*:1])C(=O)[*:2]].L.[meL].L.[CN([C@@H](Cc1cn(Cc2cccc(OC(F)F)c2)c2ccccc12)C(=O)[*:2])[*:1]]}$PEPTIDE1,PEPTIDE1,1:R1-7:R2$$$V2.0)
9 | – | – | – | – | – | – | 0.354 | 0.445 | – | CC(C)C[C@@H]1NC(=O)[C@H](Cc2c[nH]c3ccccc23)N(C)C(=O)[C@H](CC(C)C)NC(=O)[C@H](CC(C)C)N(C)C(=O)[C@H](CC(C)C)NC(=O)[C@@H](CCC#N)OC(=O)[C@H](C)N(C)C1=O [C-71] (HELM PEPTIDE1{L.[meA].[N#CCC[C@@H](O[*:1])C(=O)[*:2]].L.[meL].L.[meW]}$PEPTIDE1,PEPTIDE1,1:R1-7:R2$$$V2.0)
10 | – | – | – | 2.5 | – | – | – | 0.787 | 15.1 | CC(C)C[C@@H]1NC(=O)[C@H](Cc2cn(Cc3cccc(Br)c3)c3ccccc23)N(C)C(=O)[C@H](CC(C)C)NC(=O)[C@H](CC(C)C)N(C)C(=O)[C@H](CC(C)C)NC(=O)[C@@H](CCC#N)OC(=O)[C@H](C)N(C)C1=O [C-77] (HELM PEPTIDE1{L.[meA].[N#CCC[C@@H](O[*:1])C(=O)[*:2]].L.[meL].L.[CN([C@@H](Cc1cn(Cc2cccc(Br)c2)c2ccccc12)C(=O)[*:2])[*:1]]}$PEPTIDE1,PEPTIDE1,1:R1-7:R2$$$V2.0)
11 | – | – | – | – | – | – | 3.15 | – | – | CC(C)C[C@@H]1NC(=O)[C@H](Cc2cn(Cc3ccccc3)nn2)N(C)C(=O)[C@H](CC(C)C)NC(=O)[C@H](CC(C)C)N(C)C(=O)[C@H](CC(C)C)NC(=O)[C@@H](CCC#N)OC(=O)[C@H](C)N(C)C1=O [C-73]
12 | – | – | – | – | – | – | 0.327 | 0.226 | – | CC(C)C[C@@H]1NC(=O)[C@H](Cc2cn(Cc3ccccc3)c3ccccc23)N(C)C(=O)[C@H](CC(C)C)NC(=O)[C@H](CC(C)C)N(C)C(=O)[C@H](CC(C)C)NC(=O)[C@@H](C)OC(=O)[C@H](C)N(C)C1=O [C-72] (HELM PEPTIDE1{L.[meA].[C[C@@H](O[*:1])C(=O)[*:2]].L.[meL].L.[CN([C@@H](Cc1cn(Cc2ccccc2)c2ccccc12)C(=O)[*:2])[*:1]]}$PEPTIDE1,PEPTIDE1,1:R1-7:R2$$$V2.0)
13 | 4.72 | 0.203 | – | – | 1.05 | 14.2 | – | 0.161 | 5.28 | COc1ccccc1Cn1cc(C[C@H]2C(=O)N[C@@H](CC(C)C)C(=O)N(C)[C@@H](C)C(=O)O[C@H](CCC#N)C(=O)N[C@@H](CC(C)C)C(=O)N(C)[C@@H](CC(C)C)C(=O)N[C@@H](CC(C)C)C(=O)N2C)c2ccccc21 [C-32] (HELM PEPTIDE1{L.[meA].[N#CCC[C@@H](O[*:1])C(=O)[*:2]].L.[meL].L.[COc1ccccc1Cn1cc(C[C@@H](C(=O)[*:2])N(C)[*:1])c2ccccc21]}$PEPTIDE1,PEPTIDE1,1:R1-7:R2$$$V2.0)
